Tested on: 855422-203-R-J1-PDC spheroids with HUVEC/MSC, viability
Assay: Anticancer human tumor 855422-203-R-J1-PDC patient-derived bladder carcinoma cell line growth inhibition [PI3K]
Details: for IC50: curve of first compound; for viability, T/C: stronger effect = lower value
Outline: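 Stroma-containing spheroids: tumor line, pooled-donor HUVEC, hMSC. Treatments: targeted agents with PI3K inhibitors. Dosing: clinically relevant, half-log spacing, 10 microM ceiling without known Cmax. Read-out: cell viability.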

[1] = second compound 0.00316 µM, first compound 0.0316 µM
[2] = second compound 0.00316 µM, first compound 0.1 µM
[3] = second compound 0.00316 µM, first compound 0.316 µM
[4] = second compound 0.00316 µM, first compound 1 µM
[5] = second compound 0.00316 µM, first compound 3.16 µM
[6] = second compound 0.00316 µM, first compound 10 µM
[7] = second compound 0.01 µM, first compound 0.0316 µM
[8] = second compound 0.01 µM, first compound 0.1 µM
[9] = second compound 0.01 µM, first compound 0.316 µM
[10] = second compound 0.01 µM, first compound 1 µM
[11] = second compound 0.01 µM, first compound 3.16 µM
[12] = second compound 0.01 µM, first compound 10 µM
[13] = second compound 0.0316 µM, first compound 0.0316 µM
[14] = second compound 0.0316 µM, first compound 0.1 µM
[15] = second compound 0.0316 µM, first compound 0.316 µM
[16] = second compound 0.0316 µM, first compound 1 µM
[17] = second compound 0.0316 µM, first compound 3.16 µM
[18] = second compound 0.0316 µM, first compound 10 µM
[19] = second compound 0.1 µM, first compound 0.0316 µM
[20] = second compound 0.1 µM, first compound 0.1 µM
[21] = second compound 0.1 µM, first compound 0.316 µM
[22] = second compound 0.1 µM, first compound 1 µM
[23] = second compound 0.1 µM, first compound 3.16 µM
[24] = second compound 0.1 µM, first compound 10 µM
[25] = second compound 0.316 µM, first compound 0.0316 µM
[26] = second compound 0.316 µM, first compound 0.1 µM
[27] = second compound 0.316 µM, first compound 0.316 µM
[28] = second compound 0.316 µM, first compound 1 µM
[29] = second compound 0.316 µM, first compound 3.16 µM
[30] = second compound 0.316 µM, first compound 10 µM
[31] = second compound 1 µM, first compound 0.0316 µM
[32] = second compound 1 µM, first compound 0.1 µM
[33] = second compound 1 µM, first compound 0.316 µM
[34] = second compound 1 µM, first compound 1 µM
[35] = second compound 1 µM, first compound 3.16 µM
[36] = second compound 1 µM, first compound 10 µM
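Note: agents incubated with spheroids for one week before read-out.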
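Throughout, for viability, T/C: 100% = DMSO vehicle-treated control wells.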

SMILES: C#Cc1c(F)ccc2cc(O)cc(-c3ncc4c(N5CC6CCC(C5)N6)nc(OCC56CCCN5CC(F)C6)nc4c3F)c12 (stereo not given) + COc1c(OCCCN2CCOCC2)ccc2c3n(c(=NC(=O)c4cnc(N)nc4)nc12)CCN3
- IC50 (second compound 0.00316 µM): > 10000 nM
- IC50 (second compound 0.01 µM): > 10000 nM
- IC50 (second compound 0.0316 µM): > 10000 nM
- IC50 (second compound 0.1 µM): < 31.6 nM
- IC50 (second compound 0.316 µM): < 31.6 nM
- IC50 (second compound 1 µM): < 31.6 nM
- viability, T/C [1]: 103%
- viability, T/C [2]: 86.9%
- viability, T/C [3]: 105%
- viability, T/C [4]: 101%
- viability, T/C [5]: 103%
- viability, T/C [6]: 107%
- viability, T/C [7]: 97.7%
- viability, T/C [8]: 90.9%
- viability, T/C [9]: 83.3%
- viability, T/C [10]: 91%
- viability, T/C [11]: 92.8%
- viability, T/C [12]: 105%
- viability, T/C [13]: 57.6%
- viability, T/C [14]: 65.4%
- viability, T/C [15]: 62.7%
- viability, T/C [16]: 60%
- viability, T/C [17]: 59.5%
- viability, T/C [18]: 50.4%
- viability, T/C [19]: 25.9%
- viability, T/C [20]: 26.7%
- viability, T/C [21]: 26.5%
- viability, T/C [22]: 24.8%
- viability, T/C [23]: 23.8%
- viability, T/C [24]: 20.4%
- viability, T/C [25]: 10.8%
- viability, T/C [26]: 8.21%
- viability, T/C [27]: 9.76%
- viability, T/C [28]: 7.21%
- viability, T/C [29]: 6.7%
- viability, T/C [30]: 3.41%
- viability, T/C [31]: 3.53%
- viability, T/C [32]: 3.24%
- viability, T/C [33]: 3.78%
- viability, T/C [34]: 2.64%
- viability, T/C [35]: 2.16%
- viability, T/C [36]: 0.32%

SMILES: C=CC(=O)N1CCN(c2nc(=O)n(-c3c(C)ccnc3C(C)C)c3nc(-c4c(O)cccc4F)c(F)cc23)C(C)C1 (stereo not given) + COc1c(OCCCN2CCOCC2)ccc2c3n(c(=NC(=O)c4cnc(N)nc4)nc12)CCN3
- IC50 (second compound 0.00316 µM): > 10000 nM
- IC50 (second compound 0.01 µM): > 10000 nM
- IC50 (second compound 0.0316 µM): > 10000 nM
- IC50 (second compound 0.1 µM): < 31.6 nM
- IC50 (second compound 0.316 µM): < 31.6 nM
- IC50 (second compound 1 µM): < 31.6 nM
- viability, T/C [1]: 94%
- viability, T/C [2]: 90.8%
- viability, T/C [3]: 116%
- viability, T/C [4]: 98.8%
- viability, T/C [5]: 101%
- viability, T/C [6]: 97%
- viability, T/C [7]: 82%
- viability, T/C [8]: 99.4%
- viability, T/C [9]: 98%
- viability, T/C [10]: 89.9%
- viability, T/C [11]: 93.6%
- viability, T/C [12]: 103%
- viability, T/C [13]: 52%
- viability, T/C [14]: 60.2%
- viability, T/C [15]: 66%
- viability, T/C [16]: 79.2%
- viability, T/C [17]: 87.2%
- viability, T/C [18]: 92.6%
- viability, T/C [19]: 24.5%
- viability, T/C [20]: 34.4%
- viability, T/C [21]: 33.5%
- viability, T/C [22]: 42.1%
- viability, T/C [23]: 37.2%
- viability, T/C [24]: 34.9%
- viability, T/C [25]: 9.32%
- viability, T/C [26]: 8.33%
- viability, T/C [27]: 10.5%
- viability, T/C [28]: 10.1%
- viability, T/C [29]: 11.6%
- viability, T/C [30]: 7.98%
- viability, T/C [31]: 3.32%
- viability, T/C [32]: 4.63%
- viability, T/C [33]: 3.78%
- viability, T/C [34]: 3.95%
- viability, T/C [35]: 3.61%
- viability, T/C [36]: 1.93%

SMILES: CC(Cn1ccc(-c2ccc(C#N)c(Cl)c2)n1)NC(=O)c1cc(C(C)O)[nH]n1 (stereo not given) + COc1c(OCCCN2CCOCC2)ccc2c3n(c(=NC(=O)c4cnc(N)nc4)nc12)CCN3
- IC50 (second compound 0.00316 µM): > 10000 nM
- IC50 (second compound 0.01 µM): > 10000 nM
- IC50 (second compound 0.0316 µM): > 10000 nM
- IC50 (second compound 0.1 µM): < 31.6 nM
- IC50 (second compound 0.316 µM): < 31.6 nM
- IC50 (second compound 1 µM): < 31.6 nM
- viability, T/C [1]: 110%
- viability, T/C [2]: 90.4%
- viability, T/C [3]: 99.9%
- viability, T/C [4]: 80.3%
- viability, T/C [5]: 108%
- viability, T/C [6]: 86.8%
- viability, T/C [7]: 91.4%
- viability, T/C [8]: 83.7%
- viability, T/C [9]: 87.4%
- viability, T/C [10]: 103%
- viability, T/C [11]: 86.6%
- viability, T/C [12]: 72.8%
- viability, T/C [13]: 60.4%
- viability, T/C [14]: 64.4%
- viability, T/C [15]: 59.8%
- viability, T/C [16]: 68.7%
- viability, T/C [17]: 75.3%
- viability, T/C [18]: 58.6%
- viability, T/C [19]: 26.6%
- viability, T/C [20]: 25.5%
- viability, T/C [21]: 27.3%
- viability, T/C [22]: 30.1%
- viability, T/C [23]: 27.9%
- viability, T/C [24]: 25.3%
- viability, T/C [25]: 7.87%
- viability, T/C [26]: 8.84%
- viability, T/C [27]: 7.77%
- viability, T/C [28]: 9.07%
- viability, T/C [29]: 10.8%
- viability, T/C [30]: 7.91%
- viability, T/C [31]: 5.17%
- viability, T/C [32]: 4.25%
- viability, T/C [33]: 3.21%
- viability, T/C [34]: 3.76%
- viability, T/C [35]: 4.49%
- viability, T/C [36]: 3.05%

SMILES: CC1(C)CCC(Nc2ncc(C(F)(F)F)c(-c3c[nH]c4c(P(C)(C)=O)c(C#N)ccc34)n2)CN1 (stereo not given) + COc1c(OCCCN2CCOCC2)ccc2c3n(c(=NC(=O)c4cnc(N)nc4)nc12)CCN3
- IC50 (second compound 0.00316 µM): < 31.6 nM
- IC50 (second compound 0.01 µM): < 31.6 nM
- IC50 (second compound 0.0316 µM): < 31.6 nM
- IC50 (second compound 0.1 µM): < 31.6 nM
- IC50 (second compound 0.316 µM): < 31.6 nM
- IC50 (second compound 1 µM): < 31.6 nM
- viability, T/C [1]: 24.9%
- viability, T/C [2]: 20.8%
- viability, T/C [3]: 22.4%
- viability, T/C [4]: 23.3%
- viability, T/C [5]: 24.3%
- viability, T/C [6]: 2.48%
- viability, T/C [7]: 21.2%
- viability, T/C [8]: 18.6%
- viability, T/C [9]: 21.3%
- viability, T/C [10]: 19.8%
- viability, T/C [11]: 20.4%
- viability, T/C [12]: 3.49%
- viability, T/C [13]: 16.7%
- viability, T/C [14]: 17.2%
- viability, T/C [15]: 13.9%
- viability, T/C [16]: 16.9%
- viability, T/C [17]: 16.6%
- viability, T/C [18]: 1.53%
- viability, T/C [19]: 12.7%
- viability, T/C [20]: 10.7%
- viability, T/C [21]: 12.4%
- viability, T/C [22]: 10.1%
- viability, T/C [23]: 8.84%
- viability, T/C [24]: 1.32%
- viability, T/C [25]: 5.48%
- viability, T/C [26]: 4.79%
- viability, T/C [27]: 5.47%
- viability, T/C [28]: 6.03%
- viability, T/C [29]: 3.06%
- viability, T/C [30]: 1.28%
- viability, T/C [31]: 1.83%
- viability, T/C [32]: 2.45%
- viability, T/C [33]: 2.02%
- viability, T/C [34]: 2.08%
- viability, T/C [35]: 1.22%
- viability, T/C [36]: 1.25%

SMILES: Cn1nccc1Nc1nccc(-c2ccn(C(CO)c3ccc(Cl)c(F)c3)c(=O)c2)n1 (stereo not given) + COc1c(OCCCN2CCOCC2)ccc2c3n(c(=NC(=O)c4cnc(N)nc4)nc12)CCN3
- IC50 (second compound 0.00316 µM): 7090 nM
- IC50 (second compound 0.01 µM): 5010 nM
- IC50 (second compound 0.0316 µM): 1040 nM
- IC50 (second compound 0.1 µM): < 31.6 nM
- IC50 (second compound 0.316 µM): < 31.6 nM
- IC50 (second compound 1 µM): < 31.6 nM
- viability, T/C [1]: 94.4%
- viability, T/C [2]: 91.3%
- viability, T/C [3]: 106%
- viability, T/C [4]: 93.5%
- viability, T/C [5]: 83.7%
- viability, T/C [6]: 35.7%
- viability, T/C [7]: 88.8%
- viability, T/C [8]: 91.7%
- viability, T/C [9]: 83.3%
- viability, T/C [10]: 94.7%
- viability, T/C [11]: 67%
- viability, T/C [12]: 24.3%
- viability, T/C [13]: 61%
- viability, T/C [14]: 59.8%
- viability, T/C [15]: 53.6%
- viability, T/C [16]: 51.6%
- viability, T/C [17]: 38.1%
- viability, T/C [18]: 12.8%
- viability, T/C [19]: 25.1%
- viability, T/C [20]: 22.6%
- viability, T/C [21]: 22.3%
- viability, T/C [22]: 17.9%
- viability, T/C [23]: 10.5%
- viability, T/C [24]: 6.36%
- viability, T/C [25]: 7.7%
- viability, T/C [26]: 8.43%
- viability, T/C [27]: 5.39%
- viability, T/C [28]: 3.86%
- viability, T/C [29]: 3.44%
- viability, T/C [30]: 1.9%
- viability, T/C [31]: 2.72%
- viability, T/C [32]: 2.95%
- viability, T/C [33]: 1.79%
- viability, T/C [34]: 2.14%
- viability, T/C [35]: 0.55%
- viability, T/C [36]: 0.89%
